In patent US20150166523A1, “BRANCHED CHAIN ALKYL HETEROAROMATIC RING DERIVATIVE” (TAISHO PHARMACEUTICAL CO., LTD., priority 2012, published 2015):

Key:
[1] = target: T1, human orexin-1 receptor (hOX1R) (Homo sapiens, UniProt O43613); test: Measurement of orexin antagonistic activity (intracellular Ca2+ fluorescence, FDSS) on hOX1R; format: cell-based; settings: CHO cells forcibly expressing hOX1R; Fluo-4AM; ligand peptide (substituted human orexin-A) 300 pM; compound preincubated 30 minutes; read-out: IC50 Value OX1
T1 construct: expressed in transfected cells; host or cells: Chinese hamster ovary (CHO) cells
T1 sequence (O43613 1-425): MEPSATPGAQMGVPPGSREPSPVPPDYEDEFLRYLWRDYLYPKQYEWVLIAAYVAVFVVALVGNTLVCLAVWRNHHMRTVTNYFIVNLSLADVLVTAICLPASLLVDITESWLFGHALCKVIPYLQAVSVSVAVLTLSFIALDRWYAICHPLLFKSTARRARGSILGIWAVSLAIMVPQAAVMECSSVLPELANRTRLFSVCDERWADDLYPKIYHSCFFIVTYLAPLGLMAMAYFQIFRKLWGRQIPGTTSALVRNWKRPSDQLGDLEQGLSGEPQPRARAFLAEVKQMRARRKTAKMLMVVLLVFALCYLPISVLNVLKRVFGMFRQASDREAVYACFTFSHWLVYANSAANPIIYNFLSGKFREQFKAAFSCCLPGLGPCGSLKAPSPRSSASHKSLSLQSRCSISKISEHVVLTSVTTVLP
In short: (§1)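 CHO cells stably expressing hOX1R or hOX2R, loaded with 0.5 μM Fluo-4AM in HEPES/HBSS buffer with 0.1% BSA and 2.5 mM probenecid, pH 7.4, then preincubated 30 min with compound. Fluorescence recorded each second for 3 min by FDSS; maximum intensity taken as intracellular Ca2+ indicator of antagonism.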

[2] = target: T2, orexin-2 receptor (hOX2R) (Homo sapiens, UniProt O43614); test: Measurement of orexin antagonistic activity (intracellular Ca2+ fluorescence, FDSS) on hOX2R; format: cell-based; settings: CHO cells forcibly expressing hOX2R; Fluo-4AM; ligand peptide (substituted human orexin-A) 3 nM; compound preincubated 30 minutes; read-out: IC50 Value OX2
T2 construct: expressed in transfected cells; host or cells: Chinese hamster ovary (CHO) cells
T2 sequence (O43614 1-444): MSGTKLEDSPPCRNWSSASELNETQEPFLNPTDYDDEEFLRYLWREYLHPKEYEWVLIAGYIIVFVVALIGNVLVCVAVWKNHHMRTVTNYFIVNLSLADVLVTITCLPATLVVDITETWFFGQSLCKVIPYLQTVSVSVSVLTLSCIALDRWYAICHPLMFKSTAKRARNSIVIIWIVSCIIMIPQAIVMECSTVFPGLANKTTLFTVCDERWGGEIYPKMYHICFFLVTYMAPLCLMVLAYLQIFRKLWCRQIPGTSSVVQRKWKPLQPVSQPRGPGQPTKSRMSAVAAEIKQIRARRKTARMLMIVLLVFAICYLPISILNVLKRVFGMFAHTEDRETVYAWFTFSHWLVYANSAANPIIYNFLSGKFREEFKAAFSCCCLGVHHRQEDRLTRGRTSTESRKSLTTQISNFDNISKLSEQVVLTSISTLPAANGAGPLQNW
In short: as §1

CCN(C(=O)c1cc(C)ccc1-n1nccn1)[C@@H](C)Cn1cc(-c2ccccn2)nn1 [Example 94, N-Ethyl-5-methyl-N-{(2S)-1-[4-(pyridin-2-yl)-1H-1,2,3-triazol-1-yl]propan-2-yl}-2-(2H-1,2,3-triazol-2-yl) benzamide]
IC50 [1]: 9.3 nM | IC50 [2]: 108 nM

CCN(C(=O)c1cc(C)ccc1-n1nccn1)[C@@H](C)Cn1cc(-c2ccccc2)nn1 [Example 95, N-Ethyl-5-methyl-N-[(2S)-1-(4-phenyl-1H-1,2,3-triazol-1-yl)propan-2-yl]-2-(2H-1,2,3-triazol-2-yl)benzamide]
IC50 [1]: 0.6 nM | IC50 [2]: 17.7 nM

CCN(C(=O)c1cc(C)ccc1-n1nccn1)[C@@H](C)Cn1cc(-c2ccc(OC)cc2)nn1 [Example 96, N-Ethyl-N-{(2S)-1-[4-(4-methoxyphenyl)-1H-1,2,3-triazol-1-yl]propan-2-yl}-5-methyl-2-(2H-1,2,3-triazol-2-yl)benzamide]
IC50 [1]: 160 nM | IC50 [2]: 8370 nM

CCN(C(=O)c1cc(C)ccc1-n1nccn1)[C@@H](C)Cn1cc(-c2cccc(C)c2)nn1 [Example 97, N-Ethyl-5-methyl-N-{(2S)-1-[4-(3-methylphenyl)-1H-1,2,3-triazol-1-yl]propan-2-yl}-2-(2H-1,2,3-triazol-2-yl) benzamide]
IC50 [1]: 2.4 nM | IC50 [2]: 21.3 nM

CCN(C(=O)c1cc(C)ccc1-n1nccn1)[C@@H](C)Cn1cc(-c2cccc(F)c2)nn1 [Example 98, N-Ethyl-N-{(2S)-1-[4-(3-fluorophenyl)-1H-1,2,3-triazol-1-yl]propan-2-yl}-5-methyl-2-(2H-1,2,3-triazol-2-yl) benzamide]
IC50 [1]: 6.3 nM | IC50 [2]: 9.8 nM

CCN(C(=O)c1cc(C)ccc1-n1nccn1)[C@@H](C)Cn1cc(-c2ccc(F)c(OC)c2)nn1 [Example 99, N-Ethyl-N-{(2S)-1-[4-(4-fluoro-3-methoxyphenyl)-1H-1,2,3-triazol-1-yl]propan-2-yl}-5-methyl-2-(2H-1,2,3-triazol-2-yl)benzamide]
IC50 [1]: 1.8 nM | IC50 [2]: 1.5 nM

CCN(C(=O)c1cc(C)ccc1-n1nccn1)[C@@H](C)Cn1cc(-c2ccc(O)cc2)nn1 [Example 100, N-Ethyl-N-{(2S)-1-[4-(4-hydroxyphenyl)-1H-1,2,3-triazol-1-yl]propan-2-yl}-5-methyl-2-(2H-1,2,3-triazol-2-yl)benzamide]
IC50 [1]: 10.4 nM | IC50 [2]: 774 nM

CCN(C(=O)c1cc(C)ccc1-n1nccn1)[C@@H](C)Cn1cc(-c2cccc(OC)c2)nn1 [Example 101, N-Ethyl-N-{(2S)-1-[4-(3-methoxyphenyl)-1H-1,2,3-triazol-1-yl]propan-2-yl}-5-methyl-2-(2H-1,2,3-triazol-2-yl)benzamide]
IC50 [1]: 0.9 nM | IC50 [2]: 1.5 nM

Cc1ccc(-n2nccn2)c(C(=O)N(CC(C)O)[C@@H](C)Cn2cc(-c3ccc(F)cc3)cn2)c1 (stereo partly drawn) [Example 102, N-{(2S)-1-[4-(4-Fluorophenyl)-1H-pyrazol-1-yl]propan-2-yl}-N-(2-hydroxypropyl)-5-methyl-2-(2H-1,2,3-triazol-2-yl)benzamide]
IC50 [1]: 1.4 nM | IC50 [2]: 27.9 nM
